Experimental data: US20220162215A1, “COMPOSITIONS AND METHODS OF USING THE SAME FOR TREATMENT OF NEURODEGENERATIVE AND MITOCHONDRIAL DISEASE” (MITOKININ, INC., priority 2019, published 2022)
Converted amounts (≈) assume the structure as drawn. Read-outs that look alike come from different tables or passages of the source.

Legend:
[1] = Visual inspection of crystallization; format: physicochemical; parameters: key: 1: yes crystals; 0: no crystals; conditions: Tables 5A-5D
Experimental: (§2) Briefly, the Hela MKYP (Mito-Keima/YFP-Parkin) cells were seeded at 10K cells/well. EP/MTK compounds were added at seeding (cells were still in suspension). The cells were incubated with the EP/MTK compounds for 16 hours, then 1 μM FCCP/oligomycin was added for 6 hours. Prior to harvesting, cells were scored by eye under 20× magnification for the presence or absence of crystalline or aggregated compound, or round cells.

[2] = system: Hela MKYP (Mito-Keima/YFP-Parkin) cells; conditions: human, 22 h
Experimental: as §2

Solubility in 1× PBS = format: physicochemical
mitotoxicity = assay: Mitotox safety margin (therapeutic window); format: cell-based; conditions: for Mitotox safety margin (Therapeutic window): class of the Ratio; for Ratio**: highest concentration with no observable mitotoxicity (μM) divided by the EC50 (μM) of the compound
HeLa MKYP cells [3] = assay: Toxicity / cell death measured by DAPI staining (take-up); format: cell-based; conditions: for Toxicity (% positive for DAPI takeup @ 50 μM): Table 3; for Max cell death at 25 uM compound, 1 uM FO / Cell death at 25 μM (no FO): Table 3 Supplement B
Experimental: H2O2 treatment was performed as a control for cell death as measured by DAPI staining.
(§1) Briefly, HeLa MKYP cells were plated at 10,000 cells/well in 96 well plates along with compounds at various concentrations. Following 16 hrs of incubation, cells were treated with 1 uM FCCP/oligomycin for 6 hours, then analyzed via FACS for the presence of mitochondria in lysosomes (as determined by an emissions spectrum shift from the pH-sensitive mtKeima tag).

HeLa MKYP cells [4] = assay: Human mitophagy assay (HeLa MKYP, mtKeima FACS, FCCP/oligomycin); format: cell-based
Experimental: as §1, with “tag). Examples are shown in FIG. 1 through FIG. 13 below.” for “tag).”

[5] = Homo sapiens, HeLa, Table 3, read-out: Potency at 1 μM F/O toxin* (EC50 of mitophagy activation)
[6] = Homo sapiens, HeLa, Table 3 Supplement B, read-out: Mitophagy EC50 (HeLa mKeima assay)
[7] = Table 3, read-out: Potency at 1 μM F/O toxin* (EC50 of mitophagy activation)

Row | SMILES | solubility (Solubility in 1× PBS) | Mitotox safety margin (Therapeutic window) (mitotoxicity) | Ratio** (mitotoxicity) | Toxicity (% positive for DAPI takeup @ 50 μM) (HeLa MKYP cells [3]; 50 μM) | Max cell death at 25 uM compound, 1 uM FO (HeLa MKYP cells [3]) | Cell death at 25 μM (no FO) (HeLa MKYP cells [3]) | EC50 (HeLa MKYP cells [4]; [5]) | EC50 (HeLa MKYP cells [4]; [6]) | other results
1 | c1ccc(CNc2ncnc3nc[nH]c23)cc1 [Compound 6BAP, 6-benzylaminopurine, reference compound] | – | – | – | – | – | – | – | – | Visual inspection of crystallization ([1]; 1.6 μM): 0; Visual inspection of crystallization ([1]; 3.1 μM): 0; Visual inspection of crystallization ([1]; 6.3 μM): 0; Visual inspection of crystallization ([1]; 12.5 μM): 0; Visual inspection of crystallization ([1]; 25.0 μM): 0; Visual inspection of crystallization ([1]; 50.0 μM): 0; Inspection of round cells ([2]; 1.6 μM): 0; Inspection of round cells ([2]; 3.1 μM): 0; Inspection of round cells ([2]; 6.3 μM): 0; Inspection of round cells ([2]; 12.5 μM): 0; Inspection of round cells ([2]; 25 μM): 0; Inspection of round cells ([2]; 50 μM): 0
2 | FC(F)(F)c1cc2c(N[C@@H]3CCOc4ccccc43)ncnc2[nH]1 [Compound 37] | 150 µM (≈ 50.1 µg/mL) | + (ratio <10) | 8.85 | 21.1% | 21% | 3.04% | 6.3 µM | 6.25 µM | Toxicity (% positive for DAPI take-up at 50 μM)* (HeLa MKYP cells [3]; Table 3 Supplement A, 50 μM): 21.05%; EC50 (HeLa MKYP cells [4]; Homo sapiens, HeLa, Table 3 Supplement A, as measured in Table 3, read-out: Potency (EC50 Max Mitophagy) (μM)*): 6.28 µM
3 | CN1CC[C@H](Nc2ncnc3[nH]c(C(F)(F)F)cc23)c2ccccc21 [Compound 81] | 74.8 µM (≈ 26 µg/mL) | ++++ (ratio 30<) | 30 | 59.0% | 16% | 2.51% | – | 1.33 µM | EC50 (HeLa MKYP cells [4]; [7]): 1.7 µM
4 | C[C@H]1CCc2ccccc2[C@@H]1Nc1ncnc2[nH]c(C(F)(F)F)cc12 [Compound 82] | 1 µM (≈ 0.346 µg/mL) | – | – | 28.3% | – | – | 1 µM | 1.02 µM | Mitotox safety margin (Therapeutic window) (mitotoxicity; listed as EP-0037059): + (ratio <10); Ratio** (mitotoxicity; listed as EP-0037059): 8.69; Max cell death at 25 uM compound, 1 uM FO (HeLa MKYP cells [3]; listed as EP-0037059): 26%; Cell death at 25 μM (no FO) (HeLa MKYP cells [3]; listed as EP-0037059): 4.9%
5 | C[C@H]1CCc2ccccc2[C@H]1Nc1ncnc2[nH]c(C(F)(F)F)cc12 [Compound 85] | – | + (ratio <10) | 7.74 | 31.4% | – | – | – | 1.08 µM | Max cell death at 25 uM compound, 1 uM FO (HeLa MKYP cells [3]; listed as EP-0037094): 31.4%; Cell death at 25 μM (no FO) (HeLa MKYP cells [3]; listed as EP-0037094): 7.13%; EC50 (HeLa MKYP cells [4]; [7]): 1.1 µM
6 | O[C@@H]1Cc2ccccc2[C@H]1Nc1ncnc2[nH]c(C(F)(F)F)cc12 [Compound 88] | 19.2 µM (≈ 6.42 µg/mL) | + (ratio <10) | 1.66 | 7.6% | 7.59% | 2.35% | – | 15.1 µM | –
7 | O[C@H]1Cc2ccccc2[C@@H]1Nc1ncnc2[nH]c(C(F)(F)F)cc12 [Compound 90] | 20.1 µM (≈ 6.72 µg/mL) | + (ratio <10) | 1.35 | 14.4% | 14.4% | 2.51% | – | 18.5 µM | –
8 | N#Cc1cccc2c1CCCC2Nc1ncnc2[nH]c(C(F)(F)F)cc12 (stereo not drawn) [Compound 92] | 1 µM (≈ 0.357 µg/mL) | + (ratio <10) | 8.39 | 71.2% | 71.2% | 57.1% | 3 µM | 2.98 µM | –
9 | OC[C@@H]1CCc2ccccc2[C@H]1Nc1ncnc2[nH]c(C(F)(F)F)cc12 [Compound 94] | 12.9 µM (≈ 4.67 µg/mL) | + (ratio <10) | 7.25 | 59.5% | 59.535% | 27% | 1.1 µM | 1.15 µM | –
10 | CC[C@@H]1CCc2ccccc2[C@@H]1Nc1ncnc2[nH]c(C(F)(F)F)cc12 [Compound 100] | 9.39 µM (≈ 3.38 µg/mL) | ++ (ratio 10< × <20) | 13.8 | 8.7% | 8.735% | 5.04% | 1.8 µM | 1.81 µM | –
11 | C[C@H]1CCc2ccccc2[C@H]1Nc1ncnc2[nH]c(C(F)(F)F)cc12 [Compound 101] | – | – | – | 12.0% | – | – | – | – | solubility (Solubility in 1× PBS; aqueous buffer): 7.79 µM (≈ 2.7 µg/mL); Max cell death at 25 uM compound, 1 uM FO (HeLa MKYP cells [3]; listed as EP-0037881): 12%; Cell death at 25 μM (no FO) (HeLa MKYP cells [3]; listed as EP-0037881): 6.45%; EC50 (HeLa MKYP cells [4]; [7]): > 50 µM; Mitophagy EC50 (HeLa mKeima assay) (HeLa MKYP cells [4]; Table 3 Supplement B): Minimal activity
12 | C[C@H]1CCc2ccccc2[C@@H]1Nc1ncnc2[nH]c(C(F)(F)F)cc12 [Compound 102] | 1 µM (≈ 0.346 µg/mL) | – | – | 13.3% | – | – | – | – | Mitotox safety margin (Therapeutic window) (mitotoxicity; listed as EP-0037882): ++++ (ratio 30<); Ratio** (mitotoxicity; listed as EP-0037882): 42.16; Max cell death at 25 uM compound, 1 uM FO (HeLa MKYP cells [3]; listed as EP-0037882): 13.32%; Cell death at 25 μM (no FO) (HeLa MKYP cells [3]; listed as EP-0037882): 3.79%; EC50 (HeLa MKYP cells [4]; [7]): 0.6 µM; EC50 (HeLa MKYP cells [4]; Table 3 Supplement B, listed as EP-0037882, read-out: Mitophagy EC50 (HeLa mKeima assay)): 0.59 µM
13 | C[C@@H]1CCc2ccccc2[C@H]1Nc1ncnc2[nH]c(C(F)(F)F)cc12 [Compound 103] | 1 µM (≈ 0.346 µg/mL) | – | – | 23.8% | 23.8% | 17.9% | 4.2 µM | 4.18 µM | –
14 | CO[C@H]1COc2ccccc2[C@@H]1Nc1ncnc2[nH]c(C(F)(F)F)cc12 [Compound 104] | – | – | – | 7.7% | – | – | – | – | solubility (Solubility in 1× PBS; aqueous buffer): 1.31 µM (≈ 0.477 µg/mL); Max cell death at 25 uM compound, 1 uM FO (HeLa MKYP cells [3]; listed as EP-0037962): 7.67%; Cell death at 25 μM (no FO) (HeLa MKYP cells [3]; listed as EP-0037962): 5.15%; EC50 (HeLa MKYP cells [4]; [7]): 1.5 µM; EC50 (HeLa MKYP cells [4]; Table 3 Supplement B, listed as EP-0037962, read-out: Mitophagy EC50 (HeLa mKeima assay)): 1.48 µM
15 | CO[C@@H]1CCc2ccccc2[C@H]1Nc1ncnc2[nH]c(C(F)(F)F)cc12 [Compound 105] | 1 µM (≈ 0.362 µg/mL) | – | – | 18.4% | 18.4% | 15.3% | – | 22.1 µM | –
16 | c1ccc2c(c1)CCC[C@H]2Nc1ncnc2[nH]c(C3CC3)cc12 [Compound 107] | 1 µM (≈ 0.304 µg/mL) | ++++ (ratio 30<) | 53.2 | 16.6% | 14.9% | 9.32% | 0.48 µM | 0.47 µM | –
17 | CN(C)[C@H]1CCc2ccccc2[C@@H]1Nc1ncnc2[nH]c(C(F)(F)F)cc12 [Compound 108] | 190 µM (≈ 71.3 µg/mL) | – | – | 79.3% | 79.29% | 4.33% | > 50 µM | 0.81 µM | –
18 | Fc1ccc2c(c1)CCCC2Nc1ncnc2[nH]c(C(F)(F)F)cc12 (stereo not drawn) [Compound 109] | 1 µM (≈ 0.35 µg/mL) | – | – | 30.1% | 30.1% | 3.27% | > 50 µM | 1.06 µM | –
19 | Oc1ccc2c(c1)CCC[C@H]2Nc1ncnc2[nH]c(C(F)(F)F)cc12 [Compound 110] | 102 µM (≈ 35.5 µg/mL) | – | – | 11.0% | 11% | 3.32% | 4.4 µM | 4.38 µM | –
20 | c1coc(CNc2ncnc3[nH]cnc23)c1 [kinetin, reference compound] | – | – | – | – | – | – | – | – | Visual inspection of crystallization ([1]; 1.6 μM): 0; Visual inspection of crystallization ([1]; 3.1 μM): 0; Visual inspection of crystallization ([1]; 6.3 μM): 0; Visual inspection of crystallization ([1]; 12.5 μM): 0; Visual inspection of crystallization ([1]; 25.0 μM): 0; Visual inspection of crystallization ([1]; 50.0 μM): 0; Inspection of round cells ([2]; 1.6 μM): 0; Inspection of round cells ([2]; 3.1 μM): 0; Inspection of round cells ([2]; 6.3 μM): 0; Inspection of round cells ([2]; 12.5 μM): 0; Inspection of round cells ([2]; 25 μM): 0; Inspection of round cells ([2]; 50 μM): 0; Toxicity (% positive for DAPI take-up @ 50 μM) (HeLa MKYP cells [3]; human, 50 μM): 4.9%
